{
  "source": "patent US20120165310A1",
  "about": "“ETHER DERIVATIVES OF BICYCLIC HETEROARYLS” (NOVARTIS AG, priority 2009, published 2012)",
  "target": "T1, IGF-1R (Homo sapiens, UniProt P08069)",
  "T1 construct": "expressed in transfected cells; host or cells: Hek293 (Hek293-IGF1R)",
  "T1 sequence (P08069 31-1367)": "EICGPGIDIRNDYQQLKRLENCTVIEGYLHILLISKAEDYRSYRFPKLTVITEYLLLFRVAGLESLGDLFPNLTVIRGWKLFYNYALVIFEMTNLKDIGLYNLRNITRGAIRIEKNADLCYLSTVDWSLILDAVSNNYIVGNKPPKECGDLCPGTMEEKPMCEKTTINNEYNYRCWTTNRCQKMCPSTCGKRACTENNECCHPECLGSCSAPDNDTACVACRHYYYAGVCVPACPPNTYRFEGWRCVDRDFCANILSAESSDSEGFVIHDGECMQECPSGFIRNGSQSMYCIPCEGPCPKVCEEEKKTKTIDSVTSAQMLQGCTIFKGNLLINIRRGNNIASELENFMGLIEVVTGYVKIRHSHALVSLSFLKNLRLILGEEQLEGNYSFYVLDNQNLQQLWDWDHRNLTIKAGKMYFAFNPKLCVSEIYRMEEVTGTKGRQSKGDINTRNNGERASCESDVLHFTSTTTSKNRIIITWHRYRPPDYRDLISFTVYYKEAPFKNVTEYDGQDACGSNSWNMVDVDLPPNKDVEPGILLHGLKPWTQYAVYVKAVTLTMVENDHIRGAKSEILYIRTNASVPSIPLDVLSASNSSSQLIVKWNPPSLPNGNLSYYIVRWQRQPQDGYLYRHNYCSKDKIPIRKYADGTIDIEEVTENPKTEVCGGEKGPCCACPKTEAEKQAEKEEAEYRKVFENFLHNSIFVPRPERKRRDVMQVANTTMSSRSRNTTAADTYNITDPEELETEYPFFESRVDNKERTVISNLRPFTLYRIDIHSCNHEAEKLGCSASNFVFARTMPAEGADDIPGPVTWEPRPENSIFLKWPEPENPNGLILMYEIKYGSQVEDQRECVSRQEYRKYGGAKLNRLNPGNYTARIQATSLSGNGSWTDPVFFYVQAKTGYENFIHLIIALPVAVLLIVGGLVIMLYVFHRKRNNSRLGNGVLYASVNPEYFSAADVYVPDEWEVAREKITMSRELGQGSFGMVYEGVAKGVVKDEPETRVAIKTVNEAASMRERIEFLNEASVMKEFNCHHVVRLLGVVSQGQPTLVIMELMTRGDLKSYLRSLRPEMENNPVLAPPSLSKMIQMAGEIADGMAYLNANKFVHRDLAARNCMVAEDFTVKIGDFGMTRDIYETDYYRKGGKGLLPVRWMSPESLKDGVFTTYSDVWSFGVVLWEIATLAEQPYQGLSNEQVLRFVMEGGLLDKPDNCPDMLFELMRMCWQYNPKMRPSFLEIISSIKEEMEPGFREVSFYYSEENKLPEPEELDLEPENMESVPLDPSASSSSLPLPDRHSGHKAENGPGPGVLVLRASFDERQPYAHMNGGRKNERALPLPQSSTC",
  "test": "Cellular IGF-1R assay: capture ELISA (MSD) of receptor phosphorylation in Hek293 cells",
  "assay_type": "cell-based",
  "settings": "Hek293-IGF1R cells, 1 h pre-incubation, 10 min IGF stimulation, pIGF1R capture ELISA",
  "summary_of_the_method": "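IC50 from 4-parameter fit of IGF1R phosphorylation, normalised to IGF-stimulated and unstimulated controls, measured by MSD capture ELISA on lysates. Hek293-IGF1R cells in starvation medium got compound 1 h (top 10 μM, 3-fold steps, 0.1% DMSO) before a 10 min pulse of 1.0 ng/μL IGF.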",
  "data": [
    {"smiles": "CC(=O)N[C@H]1CC[C@@H](n2cc(-c3cccc(OCC45CCC(CC4)O5)c3)c3c(N)ncnc32)CC1", "note": "[Example 133, N-((1S,4S)-4-(5-(3-(7-oxabicyclo[2.2.1]heptan-1-ylmethoxy)phenyl)-4-amino-7H-pyrrolo[2,3-d]pyrimidin-7-yl)cyclohexyl)acetamide]", "values": [
      {"measurement": "IC50", "value": 238, "unit": "nM"}
    ]},
    {"smiles": "NC[C@H]1CC[C@@H](n2cc(-c3cccc(OCC45CCC(CC4)O5)c3)c3c(N)ncnc32)CC1", "note": "[Example 134, 5-(3-(7-oxabicyclo[2.2.1]heptan-1-ylmethoxy)phenyl)-7-((1S,4S)-4-(aminomethyl)cyclohexyl)-7H-pyrrolo[2,3-d]pyrimidin-4-amine]", "values": [
      {"measurement": "IC50", "value": 227, "unit": "nM"}
    ]},
    {"smiles": "CC1(C)CS(=O)(=O)CCN1CC1CCC(n2cc(-c3cccc(OCC45CCC(CC4)O5)c3)c3c(N)ncnc32)CC1", "note": "(stereo not drawn) [Example 135, 7-[4-(3,3-Dimethyl-1,1-dioxo-1λ6-thiomorpholin-4-ylmethyl)-cyclohexyl]-5-[3-(7-oxa-bicyclo[2.2.1]hept-1-ylmethoxy)-phenyl]-7H-pyrrolo[2,3-d]pyrimidin-4-ylamine]", "values": [
      {"measurement": "IC50", "value": 456, "unit": "nM"}
    ]},
    {"smiles": "Nc1ncnc2c1c(-c1cccc(OCC34CCC(CC3)O4)c1)cn2[C@H]1CC[C@@H](CN2CCNCC2)CC1", "note": "[Example 136, 5-(3-(7-oxabicyclo[2.2.1]heptan-1-ylmethoxy)phenyl)-7-((1S,4S)-4-(piperazin-1-ylmethyl)cyclohexyl)-7H-pyrrolo[2,3-d]pyrimidin-4-amine]", "values": [
      {"measurement": "IC50", "value": 597, "unit": "nM"}
    ]},
    {"smiles": "CS(=O)(=O)N1CCN(C[C@H]2CC[C@@H](n3cc(-c4cccc(OCC56CCC(CC5)O6)c4)c4c(N)ncnc43)CC2)CC1", "note": "[Example 137, 5-(3-(7-oxabicyclo[2.2.1]heptan-1-ylmethoxy)phenyl)-7-((1S,4S)-4-((4-(methylsulfonyl)piperazin-1-yl)methyl)cyclohexyl)-7H-pyrrolo[2,3-d]pyrimidin-4-amine]", "values": [
      {"measurement": "IC50", "value": 164, "unit": "nM"}
    ]},
    {"smiles": "Nc1ncnc2c1c(-c1cccc(OCC34CCC(CC3)O4)c1)cn2[C@H]1CC[C@@H](n2ccnc2)CC1", "note": "[Example 138, 7-((1S,4S)-4-(1H-imidazol-1-yl)cyclohexyl)-5-(3-(7-oxabicyclo[2.2.1]heptan-1-ylmethoxy)phenyl)-7H-pyrrolo[2,3-d]pyrimidin-4-amine]", "values": [
      {"measurement": "IC50", "value": 241, "unit": "nM"}
    ]},
    {"smiles": "Nc1ncnc2c1c(-c1cccc(OCC34CCC(CC3)O4)c1)cn2C1CCC2(CC1)CNC(=O)O2", "note": "(stereo not drawn) [Example 139, 8-(5-(3-(7-oxabicyclo[2.2.1]heptan-1-ylmethoxy)phenyl)-4-amino-7H-pyrrolo[2,3-d]pyrimidin-7-yl)-1-oxa-3-azaspiro[4.5]decan-2-one]", "values": [
      {"measurement": "IC50", "value": 543, "unit": "nM"}
    ]},
    {"smiles": "CN1CCN(C(=O)N[C@H]2CC[C@@H](n3cc(-c4cccc(OCC56CCC(CC5)O6)c4)c4c(N)ncnc43)CC2)CC1", "note": "[Example 140, N-((1R,4R)-4-(5-(3-(7-oxabicyclo[2.2.1]heptan-1-ylmethoxy)phenyl)-4-amino-7H-pyrrolo[2,3-d]pyrimidin-7-yl)cyclohexyl)-4-methylpiperazine-1-carboxamide]", "values": [
      {"measurement": "IC50", "value": 473, "unit": "nM"}
    ]},
    {"smiles": "Nc1ncnc2c1c(-c1cccc(OCC34CCC(CC3)O4)c1)cn2[C@H]1CC[C@@H](NC(=O)C2CCOCC2)CC1", "note": "[Example 141, N-((1S,4S)-4-(5-(3-(7-oxabicyclo[2.2.1]heptan-1-ylmethoxy)phenyl)-4-amino-7H-pyrrolo[2,3-d]pyrimidin-7-yl)cyclohexyl)tetrahydro-2H-pyran-4-carboxamide]", "values": [
      {"measurement": "IC50", "value": 21, "unit": "nM"}
    ]},
    {"smiles": "Nc1ncnc2c1c(-c1cccc(OCC34CCC(CC3)O4)c1)cn2[C@H]1CC[C@@H](NC(=O)C2CCC2)CC1", "note": "[Example 142, N-((1S,4S)-4-(5-(3-(7-oxabicyclo[2.2.1]heptan-1-ylmethoxy)phenyl)-4-amino-7H-pyrrolo[2,3-d]pyrimidin-7-yl)cyclohexyl)cyclobutanecarboxamide]", "values": [
      {"measurement": "IC50", "value": 54, "unit": "nM"}
    ]},
    {"smiles": "CN1CCN([C@H]2CC[C@@H](n3cc(-c4cccc(OCC56CCC(CC5)O6)c4)c4c(N)ncnc43)CC2)CC1=O", "note": "[Example 143, 4-((1S,4S)-4-(5-(3-(7-oxabicyclo[2.2.1]heptan-1-ylmethoxy)phenyl)-4-amino-7H-pyrrolo[2,3-d]pyrimidin-7-yl)cyclohexyl)-1-methylpiperazin-2-one]", "values": [
      {"measurement": "IC50", "value": "319 to 534", "unit": "nM"}
    ]},
    {"smiles": "Nc1ncnc2c1c(-c1cccc(OCC34CCC(CC3)O4)c1)cn2[C@H]1CC[C@@H](NC(=O)CC(F)(F)F)CC1", "note": "[Example 144, N-((1S,4S)-4-(5-(3-(7-oxabicyclo[2.2.1]heptan-1-ylmethoxy)phenyl)-4-amino-7H-pyrrolo[2,3-d]pyrimidin-7-yl)cyclohexyl)-3,3,3-trifluoropropanamide]", "values": [
      {"measurement": "IC50", "value": 593, "unit": "nM"}
    ]},
    {"smiles": "N#Cc1ccnc(N[C@H]2CC[C@@H](n3cc(-c4cccc(OCC56CCC(CC5)O6)c4)c4c(N)ncnc43)CC2)c1", "note": "[Example 145, 2-((1S,4S)-4-(5-(3-(7-oxabicyclo[2.2.1]heptan-1-ylmethoxy)phenyl)-4-amino-7H-pyrrolo[2,3-d]pyrimidin-7-yl)cyclohexylamino)isonicotinonitrile]", "values": [
      {"measurement": "IC50", "value": 229, "unit": "nM"}
    ]},
    {"smiles": "Nc1ncnc2c1c(-c1cccc(OCC34CCC(CC3)O4)c1)cn2[C@H]1CC[C@@H](NC(=O)C2CC2)CC1", "note": "[Example 146, N-((1S,4S)-4-(5-(3-(7-oxabicyclo[2.2.1]heptan-1-ylmethoxy)phenyl)-4-amino-7H-pyrrolo[2,3-d]pyrimidin-7-yl)cyclohexyl)cyclopropanecarboxamide]", "values": [
      {"measurement": "IC50", "value": 174, "unit": "nM"}
    ]},
    {"smiles": "CC(C)C(=O)N[C@H]1CC[C@@H](n2cc(-c3cccc(OCC45CCC(CC4)O5)c3)c3c(N)ncnc32)CC1", "note": "[Example 147, N-((1S,4S)-4-(5-(3-(7-oxabicyclo[2.2.1]heptan-1-ylmethoxy)phenyl)-4-amino-7H-pyrrolo[2,3-d]pyrimidin-7-yl)cyclohexyl)isobutyramide]", "values": [
      {"measurement": "IC50", "value": 231, "unit": "nM"}
    ]},
    {"smiles": "Nc1ncnc2c1c(-c1cccc(OCC34CCC(CC3)O4)c1)cn2[C@H]1CC[C@@H](Cn2ccnc2)CC1", "note": "[Example 148, 7-((1S,4S)-4-((1H-imidazol-1-yl)methyl)cyclohexyl)-5-(3-(7-oxabicyclo[2.2.1]heptan-1-ylmethoxy)phenyl)-7H-pyrrolo[2,3-d]pyrimidin-4-amine]", "values": [
      {"measurement": "IC50", "value": 247, "unit": "nM"}
    ]},
    {"smiles": "Nc1ncnc2c1c(-c1cccc(OCC34CCC(CC3)O4)c1)cn2C1CCC(O)(CN2CCS(=O)(=O)CC2)CC1", "note": "(stereo not drawn) [Example 149, 4-{4-Amino-5-[3-(7-oxa-bicyclo[2.2.1]hept-1-ylmethoxy)-phenyl]-pyrrolo[2,3-d]pyrimidin-7-yl}-1-(1,1-dioxo-1λ6-thiomorpholin-4-ylmethyl)-cyclohexanol]", "values": [
      {"measurement": "IC50", "value": 464, "unit": "nM"}
    ]},
    {"smiles": "Nc1ncnc2c1c(-c1cccc(OCC34CCC(CC3)O4)c1)cn2C1CCC(c2cnco2)CC1", "note": "[Example 150, 5-(3-(7-oxabicyclo[2.2.1]heptan-1-ylmethoxy)phenyl)-7-((1S,4S)-4-(oxazol-5-yl)cyclohexyl)-7H-pyrrolo[2,3-d]pyrimidin-4-amine]", "values": [
      {"measurement": "IC50", "value": 335, "unit": "nM"}
    ]},
    {"smiles": "Nc1ncnc2c1c(-c1cccc(OCC34CCC(CC3)O4)c1)cn2[C@H]1CC[C@H](c2cnco2)CC1", "note": "[Example 151, 5-(3-(7-oxabicyclo[2.2.1]heptan-1-ylmethoxy)phenyl)-7-((1R,4S)-4-(oxazol-5-yl)cyclohexyl)-7H-pyrrolo[2,3-d]pyrimidin-4-a mine]", "values": [
      {"measurement": "IC50", "value": 271, "unit": "nM"}
    ]},
    {"smiles": "Nc1ncnc2c1c(-c1cccc(OC[C@@H]3CCCO3)c1)cn2[C@H]1C[C@@H](CN2CCS(=O)(=O)CC2)C1", "note": "[Example 156, 7-[cis-3-(1,1-Dioxo-1-thiomorpholin-4-ylmethyl)-cyclobutyl]-5-{3-[(S)-1-(tetrahydro-furan-2-yl)methoxy]-phenyl}-7H-pyrrolo[2,3-d]pyrimidin-4-ylamine]", "values": [
      {"measurement": "IC50", "value": 166, "unit": "nM"}
    ]},
    {"smiles": "[2H]C([2H])(Oc1cccc(-c2cn([C@H]3C[C@@H](CN4CCS(=O)(=O)CC4)C3)c3ncnc(N)c23)c1)C12CCC(CC1)O2", "note": "[Example 159, d2-7-[cis-3-(1,1-dioxo-1-thiomorpholin-4-ylmethyl)-cyclobutyl]-5-[3-(7-oxa-bicyclo[2.2.1]hept-1-ylmethoxy)-phenyl]-7H-pyrrolo[2,3-d]pyrimidin-4-ylamine]", "values": [
      {"measurement": "IC50", "value": "7 to 14", "unit": "nM"}
    ]},
    {"smiles": "COC(=O)NCC1CC(n2cc(-c3cccc(OCC45CCC(CC4)O5)c3)c3c(N)ncnc32)C1", "note": "(stereo not drawn) [Example 161, (3-{4-amino-5-[3-(7-oxa-bicyclo[2.2.1]hept-1-ylmethoxy)-phenyl]-pyrrolo[2,3-d]pyrimidin-7-yl}-cyclobutylmethyl)-carbamic acid methyl ester]", "values": [
      {"measurement": "IC50", "value": 16, "unit": "nM"}
    ]},
    {"smiles": "CCC(=O)NCC1CC(n2cc(-c3cccc(OCC45CCC(CC4)O5)c3)c3c(N)ncnc32)C1", "note": "(stereo not drawn) [Example 162, N-(3-{4-amino-5-[3-(7-oxa-bicyclo[2.2.1]hept-1-ylmethoxy)-phenyl]-pyrrolo[2,3-d]pyrimidin-7-yl}-cyclobutylmethyl)-propionamide]", "values": [
      {"measurement": "IC50", "value": 101, "unit": "nM"}
    ]},
    {"smiles": "CCNC(=O)NCC1CC(n2cc(-c3cccc(OCC45CCC(CC4)O5)c3)c3c(N)ncnc32)C1", "note": "(stereo not drawn) [Example 163, 1-(3-{4-amino-5-[3-(7-oxa-bicyclo[2.2.1]hept-1-ylmethoxy)-phenyl]-pyrrolo[2,3-d]pyrimidin-7-yl}-cyclobutylmethyl)-3-ethyl-urea]", "values": [
      {"measurement": "IC50", "value": 153, "unit": "nM"}
    ]},
    {"smiles": "CC(C)C(=O)NCC1CC(n2cc(-c3cccc(OCC45CCC(CC4)O5)c3)c3c(N)ncnc32)C1", "note": "(stereo not drawn) [Example 164, N-(3-{4-amino-5-[3-(7-oxa-bicyclo[2.2.1]hept-1-ylmethoxy)-phenyl]-pyrrolo[2,3-d]pyrimidin-7-yl}-cyclobutylmethyl)-isobutyramide]", "values": [
      {"measurement": "IC50", "value": 143, "unit": "nM"}
    ]},
    {"smiles": "[2H]C([2H])([2H])C(=O)NC[C@H]1C[C@@H](n2cc(-c3cccc(OCC45CCC(CC4)O5)c3)c3c(N)ncnc32)C1", "note": "[Example 165, d3-N-(3-{4-amino-5-[3-(7-oxa-bicyclo[2.2.1]hept-1-ylmethoxy)-phenyl]-pyrrolo[2,3-d]pyrimidin-7-yl}-cyclobutylmethyl)-acetamide]", "values": [
      {"measurement": "IC50", "value": 52, "unit": "nM"}
    ]},
    {"smiles": "[2H]C1([2H])C([2H])([2H])C2(COc3cccc(-c4cn([C@H]5C[C@@H](CN6CCS(=O)(=O)CC6)C5)c5ncnc(N)c45)c3)OC1([2H])C([2H])([2H])C2([2H])[2H]", "note": "[Example 166, d9-7-[cis-3-(1,1-dioxo-1-thiomorpholin-4-ylmethyl)-cyclobutyl]-5-[3-(7-oxa-bicyclo[2.2.1]hept-1-ylmethoxy)-phenyl]-7H-pyrrolo[2,3-d]pyrimidin-4-ylamine]", "values": [
      {"measurement": "IC50", "value": 16, "unit": "nM"}
    ]}
  ]
}
